This passage reports logP results from the OPERA property sets (Mansouri et al. 2018).

As for `O=S1C=Cc2ccccc21` (stereo not given), the logP is 1.01.
As for `Cc1cccc2sccc12`, the figure is 3.57; as for `c1cc2ccc3cccc4sc(c1)c2c34`, 4.95; as for `c1ccc2c(c1)ccc1ccsc12`, 4.55.
Under `Cc1cccc2ccsc12` stands 3.85; under `c1ccc2c(c1)ccc1sc3ccccc3c12`, 5.19.
As for `Cc1cc2ccccc2s1`, the figure is 3.71.
Compound `c1ccc2c(c1)ccc1sccc12` registered a logP of 4.41.
For the compound `c1ccc2cc3sccc3cc2c1`, the logP was 4.5.
Under `c1ccc2c(c1)ccc1c3ccsc3ccc21` stands 5.35.

A word on the logP: it is the decadic logarithm of the partition coefficient of the neutral form, usually between octanol and water. A high value points to a more lipophilic compound.
